Source: patent publication US11230717B2, “Plants having increased tolerance to herbicides” (BASF SE, priority 2013, dated 2022)

Legend:
Arabidopsis HPPD = target: T1, Arabidopsis HPPD (Arabidopsis thaliana, UniProt P93836); assay: HPPD activity assay (homogentisic acid by HPLC), in vitro characterization; type: biochemical
T1 construct: His6 (N); made in house; host or cells: E. coli BL21 (DE3)
T1 sequence (P93836 1-445): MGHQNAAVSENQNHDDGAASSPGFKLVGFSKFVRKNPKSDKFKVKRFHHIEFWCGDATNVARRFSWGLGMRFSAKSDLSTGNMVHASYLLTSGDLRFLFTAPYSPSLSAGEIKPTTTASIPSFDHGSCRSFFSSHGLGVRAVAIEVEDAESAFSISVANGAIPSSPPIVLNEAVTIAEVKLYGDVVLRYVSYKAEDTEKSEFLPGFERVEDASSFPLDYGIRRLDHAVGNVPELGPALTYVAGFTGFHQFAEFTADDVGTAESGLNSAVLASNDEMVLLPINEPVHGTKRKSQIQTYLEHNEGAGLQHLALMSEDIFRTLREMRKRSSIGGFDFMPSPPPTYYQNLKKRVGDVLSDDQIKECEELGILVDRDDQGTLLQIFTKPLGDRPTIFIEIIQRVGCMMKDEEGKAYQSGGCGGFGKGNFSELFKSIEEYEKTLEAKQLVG
Procedure: (§1) HPPD produces homogentisic acid and CO2 from 4-hydroxyphenylpyruvate (4-HPP) and O2. The activity assay for HPPD is based on the analysis of homogentisic acid by reversed phase HPLC.
(§2) The assay mixture can contain 150 mM potassium phosphate buffer pH 7.0, 50 mM L-ascorbic acid, 100 μM Catalase (Sigma-Aldrich), 1 μM FeSO4 and 0.2 units of purified HPPD enzyme in a total volume of 505 μl. 1 unit is defined as the amount of enzyme that is required to produce 1 nmol of HGA per minute at 20° C.
(§3) After a preincubation of 30 min the reaction is started by adding 4-HPP to a final concentration of 0.05 mM. The reaction is allowed to proceed for 45 min at room temperature. The reaction is stopped by the addition of 50 μl of 4.5 M phosphoric acid. The sample is filtered using a […] pore size PVDF filtration device.
(§4) 5 μl of the cleared sample is analyzed on an UPLC HSS T3 column (particle size 1.8 μm, dimensions 2,1×50 mm; Waters) by isocratic elution using 90% 20 mM NaH2PO4 pH 2.2, 10% methanol (v/v).
(§5) HGA is detected electrochemically at 750 mV (mode: DC; polarity: positive) and quantified by integrating peak areas (Empower software; Waters).
(§6) Inhibitors are dissolved in DMSO (dimethylsulfoxide) to a concentration of 0.5 mM. From this stock solution serial five-fold dilutions are prepared in DMSO, which are used in the assay. The respective inhibitor solution accounts for 1% of the assay volume. […] Activities are normalized by setting the uninhibited enzyme activity to 100%. IC50 values are calculated using non-linear regression.
(§7) Using methods which are described in the above examples or well known in the art, purified, recombinant wildtype HPPD enzymes are characterized with respect to their kinetic properties and sensitivity towards HPPD inhibiting herbicides. Apparent michaelis constants (Km) and maximal reaction velocities (Vmax) are calculated by non-linear regression with the software GraphPad Prism 5 (GraphPad Software, La Jolla, USA) using a substrate inhibition model. […] Weighted means (by standard error) of Km and IC50 values are calculated from at least three independent experiments. […] To assess the potential performance of a herbicide tolerance trait a tolerance index (TI) is calculated using the following formula: […]

[1] = target: T2, Hordeum HPPD (SEQ ID NO:2) (Hordeum vulgare, UniProt O48604, A164G/R146V/R147D/R148G); assay: HPPD activity assay, in vitro characterization; type: biochemical
T2 construct: subcloned into a modified pET24D (Novagen) expression vector resulting in N-terminally His-tagged expression constructs; His (N); made in house; host or cells: E. coli BL21 (DE3)
T2 sequence (O48604 whole entry R146V/R147D/R148G/A164G): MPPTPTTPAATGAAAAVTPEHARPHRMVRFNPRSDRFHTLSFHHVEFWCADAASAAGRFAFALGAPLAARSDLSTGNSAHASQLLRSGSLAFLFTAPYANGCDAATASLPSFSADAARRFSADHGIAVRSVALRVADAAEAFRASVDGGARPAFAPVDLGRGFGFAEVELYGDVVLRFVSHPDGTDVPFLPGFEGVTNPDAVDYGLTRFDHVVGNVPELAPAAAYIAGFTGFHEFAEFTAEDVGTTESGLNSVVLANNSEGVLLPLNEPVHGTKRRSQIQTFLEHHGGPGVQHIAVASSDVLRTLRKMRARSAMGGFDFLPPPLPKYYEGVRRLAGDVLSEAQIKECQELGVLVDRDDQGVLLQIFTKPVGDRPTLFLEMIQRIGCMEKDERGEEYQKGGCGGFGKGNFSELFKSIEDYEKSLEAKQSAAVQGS
Procedure: as §1, §2, §3, §4, §5, §6, §7

[2] = test system: transgenic Arabidopsis plants; assay: Greenhouse testing of transgenic Arabidopsis plants (T2), herbicide spray test; type: in vivo, Arabidopsis thaliana; details: for Injury evaluation, scale 0-100%: Arabidopsis
Procedure: Transgenic plants expressing heterologous HPPD or HST enzymes are tested for tolerance against HPPD-inhibiting herbicides in greenhouse experiments.
For post emergence treatment, the test plants are first grown to a height of 3 to 15 cm, depending on the plant habit, and only then treated with the herbicides. For this purpose, the test plants are either sown directly and grown in the same containers, or they are first grown separately and transplanted into the test containers a few days prior to treatment. For testing of T0 plants, cuttings can be used. In the case of soybean plants, an optimal shoot for cutting is about 7.5 to 10 cm tall, with at least two nodes present. Each cutting is taken from the original transformant (mother plant) and dipped into rooting hormone powder (indole-3-butyric acid, IBA). The cutting is then placed in oasis wedges inside a bio-dome. Wild type cuttings are also taken simultaneously to serve as controls. The cuttings are kept in the bio-dome for 5-7 days and then transplanted to pots and then acclimated in the growth chamber for two more days. Subsequently, the cuttings are transferred to the greenhouse, acclimated for approximately 4 days, and then subjected to spray tests as indicated.
Additionally, T1 and T2 transgenic Arabidopsis plants can be tested for improved tolerance to HPPD-inhibiting herbicides in a greenhouse studies. Herbicide injury scoring is done 2-3 weeks after treatment and is rated on a scale of 0 to 100%, 0% being no injury and 100% being complete death.

Question: `CSc1c(Cl)cc(F)c(C(=O)Nc2nnnn2C)c1Cl` [Inhibitor 2, 2,4-dichloro-6-fluoro-3-methylsulfanyl-N-(1-methyltetrazol-5-yl)benzamide] was tested. Which Ki (Arabidopsis HPPD) did it give?
Answer: The Ki was 20 nM.

Question: And the Ki [1]?
Answer: The Ki was 11 nM.

Question: What about the tolerance factor ([2]; Arabidopsis HvL320H, P321A, highest rate active ingredient applied) of the same compound?
Answer: Its tolerance factor is “outstanding tolerance factor”.

Question: What about the “tolerance compared to untransformed wild-type control” value ([2]; Arabidopsis expressing Rhodococcus HPPD (SEQ ID NO:46), highest concentration) of the same compound?
Answer: The value was 2 fold.

Question: And the “Injury evaluation, scale 0-100%” value ([2]; transgene AtF381I, 3.125 g/ha, two weeks)?
Answer: The value was 20%.

Question: And the “Injury evaluation, scale 0-100%” value ([2]; transgene AtF381I, 6.25 g/ha, two weeks)?
Answer: Its value is 25%.

Question: And the “Injury evaluation, scale 0-100%” value ([2]; transgene AtF381I, 12.5 g/ha, two weeks)?
Answer: Its value is 40%.

Question: What about the “Injury evaluation, scale 0-100%” value ([2]; transgene AtM335H, P336A, E363Q, 1.56 g/ha, two weeks) of the same compound?
Answer: Its value is 0%.

Question: What about the “Injury evaluation, scale 0-100%” value ([2]; transgene AtM335H, P336A, E363Q, 3.125 g/ha, two weeks) of the same compound?
Answer: Its value is 7%.

Question: And the “Injury evaluation, scale 0-100%” value ([2]; transgene AtM335H, P336A, E363Q, 6.25 g/ha, two weeks)?
Answer: The value was 7%.

Question: What about the “Injury evaluation, scale 0-100%” value ([2]; transgene AtM335H, P336A, E363Q, 12.5 g/ha, two weeks) of the same compound?
Answer: Its value is 47%.

Question: And the “Injury evaluation, scale 0-100%” value ([2]; transgene HvL320H, P321A, 1.56 g/ha, two weeks)?
Answer: Its value is 0%.

Question: What about the “Injury evaluation, scale 0-100%” value ([2]; transgene HvL320H, P321A, 3.125 g/ha, two weeks) of the same compound?
Answer: Its value is 5%.

Question: What about the “Injury evaluation, scale 0-100%” value ([2]; transgene HvL320H, P321A, 6.25 g/ha, two weeks) of the same compound?
Answer: Its value is 7%.

Question: And the “Injury evaluation, scale 0-100%” value ([2]; transgene HvL320H, P321A, 12.5 g/ha, two weeks)?
Answer: The value was 8%.

Question: What about the “Injury evaluation, scale 0-100%” value ([2]; transgene HvL320H, 1.56 g/ha, two weeks) of the same compound?
Answer: The value was 0%.

Question: And the “Injury evaluation, scale 0-100%” value ([2]; transgene HvL320H, 3.125 g/ha, two weeks)?
Answer: Its value is 12%.

Question: And the “Injury evaluation, scale 0-100%” value ([2]; transgene HvL320H, 6.25 g/ha, two weeks)?
Answer: The value was 18%.

Question: What about the “Injury evaluation, scale 0-100%” value ([2]; transgene HvL320H, 12.5 g/ha, two weeks) of the same compound?
Answer: Its value is 33%.

Question: What about the “Injury evaluation, scale 0-100%” value ([2]; transgene None, 1.56 g/ha, two weeks after treatment) of the same compound?
Answer: The value was 86%.

Question: And the “Injury evaluation, scale 0-100%” value ([2]; transgene None, 3.125 g/ha, two weeks after treatment)?
Answer: The value was 87%.

Question: What about the “Injury evaluation, scale 0-100%” value ([2]; transgene None, 6.25 g/ha, two weeks after treatment) of the same compound?
Answer: The value was 98%.

Question: What about the “Injury evaluation, scale 0-100%” value ([2]; transgene None, 12.5 g/ha, two weeks after treatment) of the same compound?
Answer: The value was 94%.

Question: What about the “Injury evaluation, scale 0-100%” value ([2]; transgene RjHPPD, 1.56 g/ha, two weeks) of the same compound?
Answer: The value was 2%.

Question: And the “Injury evaluation, scale 0-100%” value ([2]; transgene RjHPPD, 3.125 g/ha, two weeks)?
Answer: Its value is 12%.

Question: And the “Injury evaluation, scale 0-100%” value ([2]; transgene RjHPPD, 6.25 g/ha, two weeks)?
Answer: The value was 13%.

Question: What about the “Injury evaluation, scale 0-100%” value ([2]; transgene RjHPPD, 12.5 g/ha, two weeks) of the same compound?
Answer: The value was 46%.

Question: With `O=C(O)C(=O)Cc1ccc(O)cc1` [Inhibitor 4-HPP, 4-hydroxyphenylpyruvate, reference compound] as the compound, how does the Km (Arabidopsis HPPD; Arabidopsis HPPD, apparent michaelis constant, read-out: Km (4-HPP)) read?
Answer: Its Km is 13 µM.

Question: What about the kcat (Arabidopsis HPPD; Arabidopsis HPPD, turnover number, substrate 4-HPP) of the same compound?
Answer: The kcat was 12.9 s⁻¹.

Question: And the Km ([1]; Hordeum HPPD, apparent michaelis constant, read-out: Km (4-HPP))?
Answer: The Km was 26 µM.

Question: What about the kcat ([1]; Hordeum HPPD, turnover number, substrate 4-HPP) of the same compound?
Answer: The kcat was 11.5 s⁻¹.
